The conditions of data set [1]: phosphopeptides released by tryptic digestion of casein; from Australian Patent No. 593365; cited from earlier work.
The nature of data set [2]: phosphate binding of the phosphopeptide. The class given is physicochemical. Conditions: calcium phosphate ACPP. An excerpt: (§1) The calcium ACPP can be converted to calcium phosphate ACPP by addition of CaCl2 and Na2HPO4 where the Ca/P final ratio is 1.67. The peptide αs1(59-79) can bind 21 Ca and 13 PO4. The filtrate of the above process is suited for the purification of other bioactive casein peptides by size and charge-based separation technologies and can be used as microbiological growth media, as dietary supplements after debittering or as a nitrogen fertilizer.

Data set [3] can be described thus: calcium binding of the phosphopeptide. In kind it is physicochemical. The following applies: calcium phosphate ACPP.
From the text: as §1

Data on 4 substances can be found in US6448374B1, “Production of phosphopeptides from casein” (The University of Melbourne, priority 1991, dated 2002).

Where no end group is shown, it is not given here. [ ]: non-standard residue; d: D form. pS = N[C@@H](COP(=O)(O)O)C(=O)O

For the substance “αs2(2-21): casein tryptic phosphopeptide containing -Ser(P)-Ser(P)-Ser(P)-Glu-Glu- (NTMEHV[pS][pS][pS]EESIISQETYK; ends and bridges not checked; also: other serines' phosphorylation not given here)”, in data set [1], the “anticariogenic (tooth-decay-inhibiting) activity” value is given as “anticariogenic (tooth-decay-inhibiting) activity”.

For the substance “β(2-25): casein tryptic phosphopeptide containing -Ser(P)-Ser(P)-Ser(P)-Glu-Glu- (ELEELNVPGEIVESL[pS][pS][pS]EESITR; ends and bridges not checked; also: other serines' phosphorylation not given here)”, the “anticariogenic (tooth-decay-inhibiting) activity” value in data set [1] was “anticariogenic (tooth-decay-inhibiting) activity”.

On to “αs1(59-79): casein tryptic phosphopeptide containing -Ser(P)-Ser(P)-Ser(P)-Glu-Glu- (QMEAESI[pS][pS][pS]EEIVPNSVEQK; ends and bridges not checked; also: other serines' phosphorylation not given here)”, for which the “anticariogenic (tooth-decay-inhibiting) activity” value in data set [1] is listed as “anticariogenic (tooth-decay-inhibiting) activity”. In data set [2], the “PO4 bound per peptide” value stood at 13 PO4. Besides, the “Ca bound per peptide” value in data set [3] came out at 21 Ca.

Consider “αs2(46-70): casein tryptic phosphopeptide containing -Ser(P)-Ser(P)-Ser(P)-Glu-Glu- (NANEEEYSIG[pS][pS][pS]EESAEVATEEVK; ends and bridges not checked; also: other serines' phosphorylation not given here)”, for which the “anticariogenic (tooth-decay-inhibiting) activity” value in data set [1] is on record as “anticariogenic (tooth-decay-inhibiting) activity”.
